Reference: patent publication US7700566B2, “Mosquito control method” (priority 2006, dated 2010)

Tested on: Aedes albopictus (Asian Tiger Mosquito) larvae
Test: Larval development of Aedes albopictus in sugar-containing aqueous environment
Type: in vivo
Details: single sugar
Protocol: The combinations and ratios of sugars experimentally tested to date have been chosen to be generally equivalent to the combinations and ratios of sugars found in natural nectars. For example, a 5% tangerine nectar equivalent solution is created by dissolving approximately 6.2 grams of sucrose, approximately 1.9 grams of dextrose (glucose) and approximately 1.9 grams of fructose in 200 ml of water. This provides a solution that is approximately 3.1% sucrose, approximately 0.95% dextrose and approximately 0.95% fructose. A 5% strawberry nectar equivalent solution is created by dissolving approximately 0.7 grams of sucrose, approximately 5.3 grams of dextrose (glucose) and approximately 4.0 grams of fructose in 200 ml of water. This provides a solution that is approximately 0.35% sucrose, approximately 2.65% dextrose and approximately 2.0% fructose. A 5% white mangrove nectar equivalent solution is created by dissolving approximately 2.2 grams of sucrose, approximately 3.2 grams of dextrose (glucose) and approximately 4.6 grams of fructose in 200 ml of water. This provides a solution that is approximately 1.1% sucrose, approximately 01.6% dextrose and approximately 2.3% fructose. The three sugars sucrose, dextrose and fructose were also tested independently in 5% aqueous solutions. Lower concentrations of 0.5%, 1.0% and above of the nectar equivalent solutions and independent sugars were also prepared and tested.
In tests using Aedes albopictus (Asian Tiger Mosquito) or Aedes aegypti (Yellow Fever Mosquito) larvae, 5% solutions of each of the tangerine, strawberry and white mangrove nectar equivalent solutions were independently produced using either phosphate buffered saline or pure water in conjunction with the sugars to create the aqueous environments. Larvae were then introduced into the 5% solution aqueous environments in varying numbers. […] In a further test, liver powder was added to the various solutions above as a nutrient to spur larval development.

SMILES | larvae emerged as adults (0.5% solution) | larval development past the second instar stage (5% solution) | larvae emerged as adults (5% solution)
O=C(CO)[C@@H](O)[C@H](O)[C@H](O)CO [fructose] | 100% | no larvae developed past the second instar stage | –
OC[C@H]1O[C@@](CO)(O[C@H]2O[C@H](CO)[C@@H](O)[C@H](O)[C@H]2O)[C@@H](O)[C@@H]1O [sucrose] | 77% | – | 13%
